Assays:
MAPKAPK5 = target: T1, MAPKAPK5 (Homo sapiens, UniProt Q8IW41); experiment: MAPKAP-K5 assay (FlashPlate kinase assay)
T1 sequence (Q8IW41 1-471 isoform Q8IW41-2): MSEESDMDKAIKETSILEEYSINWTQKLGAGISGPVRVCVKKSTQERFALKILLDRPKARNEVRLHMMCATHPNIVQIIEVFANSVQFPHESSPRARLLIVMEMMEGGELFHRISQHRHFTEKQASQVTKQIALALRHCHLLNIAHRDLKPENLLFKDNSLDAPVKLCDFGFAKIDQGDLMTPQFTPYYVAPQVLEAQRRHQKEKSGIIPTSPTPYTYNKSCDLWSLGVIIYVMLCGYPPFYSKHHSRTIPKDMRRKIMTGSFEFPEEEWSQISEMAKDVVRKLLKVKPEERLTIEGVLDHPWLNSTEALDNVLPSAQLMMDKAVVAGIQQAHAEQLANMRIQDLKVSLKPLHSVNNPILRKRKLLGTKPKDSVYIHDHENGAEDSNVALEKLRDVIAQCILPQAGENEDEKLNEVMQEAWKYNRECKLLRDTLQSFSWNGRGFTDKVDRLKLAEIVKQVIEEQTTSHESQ

[1] = system: MMP1 expression by activated primary synovial fibroblasts; experiment: 'MMP assay': MMP1 expression by complex trigger activated synovial fibroblasts (MMP1 ELISA); type: cell-based; conditions: Homo sapiens, Fibroblast; Table 3; RASFs, complex trigger, 48 hrs, MMP1 ELISA
[2] = system: TNFα release by human PBMCs; experiment: Cytokine release by LPS stimulated human PBMCs (TNFα ELISA); type: cell-based; conditions: PBMC, 24 h, Table 5, LPS 1 μg/mL
Description: For the assay PBMCs are seeded at 2.5E6 cells/mL in 160 μL in 96-well plates (Nunc). Serial dilution of the test compounds are made first in DMSO (Sigma) and then diluted 50-fold in M199 medium (Gibco) containing 1% heat-inactivated FBS. Compounds are further 1/10 diluted in the assay plates to obtain final DMSO concentration of 0.2%. Cells are preincubated with the compounds for 1 hr at 37° C., 5% CO2. Then, cells are stimulated with LPS (Escherichia coli serotype 026:B6, Cat. No. L2654, Sigma) that is added in a volume of 20 μL to a final concentration of 1 μg/mL and cells are further cultured for 24 hr. The plates are centrifuged and the supernatant is collected and stored at −80° C. until analysis of appropriate dilutions in ELISAs.
After 4 hr incubation at RT, blocking buffer is removed and plates are washed once with PBST (1×PBS with 0.05% Tween-20 (Sigma)). Then, 40 μL of sample is transferred to the ELISA plates and plates are incubated at 4° C. […] After 2 h of incubation at RT, plates are washed as described above and 35 μL/well of a 1/2000 dilution of streptavidin-HRP conjugate (Cat. No. SNN2004, Biosource) in buffer D is added. After 45 min, plates are washed as described above and incubated for 5 min with 50 μL/well BM Chemiluminescence ELISA Substrate POD (Roche). Readout is performed on the Luminoscan Ascent Luminometer (Labsystems) with an integration time of 100 msec delivering raw data (RLU: relative luminescence units). The following controls are included in the experiments, a maximal signal control, in which the cells are activated by LPS but only the 0.2% DMSO vehicle (and thus no compound) is added. […] A minimal signal control is also included in these experiments. Here, cells are not triggered. […] Where compounds are tested at 8 concentrations (1/3 serial dilution), EC50-values can be calculated by curve fitting of the means of the PIN data achieved for a compound at each test concentration.

Compound | IC50 (MAPKAPK5) [nM] | EC50 [1] [nM] | EC50 [2] [nM]
O=C1NCc2cc(-c3cnc(Nc4ccc(N5CCOCC5)cc4Cl)c4ncnn34)ccc21 [Compound 76] | > 1000 | 501 to 1000 | > 1000
NC(=O)c1cc(-c2cnc(Nc3ccc(N4CCNCC4)cc3)c3ncnn23)cs1 [Compound 27] | 101 to 500 | 501 to 1000 | > 1000
FC(F)(F)CN1CCC(c2ccc(Nc3ncc(-c4cn[nH]c4)n4ncnc34)cc2)CC1 [Compound 64] | > 1000 | > 1000 | > 1000
CC(C)N1CCC(c2ccc(Nc3ncc(-c4csc(C(N)=O)c4)n4ncnc34)cc2)CC1 [Compound 89, 4-{8-[4-(1-Isopropylpiperidin-4-yl)phenylamino]-[1,2,4]triazolo[1,5-a]pyrazin-5-yl}-thiophene-2-carboxylic acid amide] | 1 to 100 | 501 to 1000 | > 1000
NC(=O)c1cc(-c2cnc(Nc3ccc(N4CCN(CC5CC5)CC4)cc3)c3ncnn23)cs1 [Compound 58, 4-{8-[4-(4-(Cyclopropylmethyl)piperazin-1-yl)-phenylamino]-[1,2,4]triazolo[1,5-a]pyrazin-5-yl}thiophene-2-carboxylic acid amide] | 101 to 500 | 101 to 500 | > 1000
CC(C)N1CCN(c2ccc(Nc3ncc(-c4cc(F)c5c(c4)CNC5=O)n4ncnc34)cc2)CC1 [Compound 108, 7-Fluoro-5-{8-[4-(4-isopropylpiperazin-1-yl)-phenylamino]-[1,2,4]triazolo[1,5-a]pyrazin-5-yl}-2,3-dihydroisoindol-1-one] | 1 to 100 | > 1000 | > 1000
FC(F)(F)c1cc(Nc2ncc(-c3cn[nH]c3)n3ncnc23)ccc1N1CCOCC1 [Compound 25] | > 1000 | > 1000 | > 1000
Fc1cc(Nc2ncc(-c3cn[nH]c3)n3ncnc23)ccc1N1CCOCC1 [Compound 17, (3-Fluoro-4-morpholinophenyl)-5-(1H-pyrazol-4-yl)-[1,2,4]triazolo[1,5-a]pyrazin-8-amine] | > 1000 | > 1000 | > 1000
NC(=O)c1ccc(-c2cnc(Nc3ccc(OCCN4CCOCC4)cc3)c3ncnn23)s1 [Compound 22, 5-(8-(4-(2-Morpholinoethoxy)phenylamino)-[1,2,4]triazolo[1,5-a]pyrazin-5-yl)thiophene-2-carboxamide] | 501 to 1000 | > 1000 | > 1000
CC(C)N1CCN(c2ccc(Nc3ncc(-c4ccc5c(c4)CNC5=O)n4ncnc34)c(Cl)c2)CC1 [Compound 77] | 101 to 500 | > 1000 | > 1000
O=C1NS(=O)(=O)c2cc(-c3cnc(Nc4ccc(N5CCOCC5)cc4)c4ncnn34)ccc21 [Compound 53, 6-[8-(4-Morpholin-4-yl-phenylamino)-[1,2,4]triazolo[1,5-a]pyrazin-5-yl]-1,1-dioxo-1,2-dihydro-1λ^6-benzo[d]isothiazol-3-one] | > 1000 | 501 to 1000 | > 1000
OCc1cc(Nc2ncc(-c3cn[nH]c3)n3ncnc23)ccc1N1CCOCC1 [Compound 37, {5-[5-(1H-Pyrazol-4-yl)-[1,2,4]triazolo[1,5-a]pyrazin-8-ylamino]-2-morpholinophenyl}methanol] | > 1000 | 501 to 1000 | > 1000
O=C1NCc2cc(-c3cnc(Nc4cnc(N5CCOCC5)nc4)c4ncnn34)ccc21 [Compound 99] | 101 to 500 | > 1000 | 501 to 1000
O=C1NCc2cc(-c3cnc(NC4CCOCC4)c4ncnn34)ccc21 [Compound 116] | > 1000 | > 1000 | > 1000
CC(C)N1CCN(c2ccc(Nc3ncc(-c4cn[nH]c4)n4ncnc34)cc2)CC1 [Compound 38] | 501 to 1000 | > 1000 | > 1000
CC(C)N1CCN(c2ncc(Nc3ncc(-c4ccc5c(c4)CNC5=O)n4ncnc34)cn2)CC1 [Compound 101] | 101 to 500 | > 1000 | > 1000
CC(C)N1CCC(c2ccc(Nc3ncc(-c4cn[nH]c4)n4ncnc34)cc2)CC1 [Compound 84, [4-(1-Isopropylpiperidin-4-yl)phenyl]-[5-(1H-pyrazol-4-yl)-[1,2,4]triazolo[1,5-a]pyrazin-8-yl]amine] | 501 to 1000 | > 1000 | > 1000

Now from value to compound, other results behind:

IC50 (MAPKAPK5) [nM] | Compound | EC50 [1] [nM] | EC50 [2] [nM]
> 1000 | CC(C)N1CCN(c2ccc(Nc3ncc(-c4ccsc4)n4ncnc34)cc2)CC1 [Compound 51, [4-(4-Isopropylpiperazin-1-yl)phenyl]-(5-thiophen-3-yl-[1,2,4]triazolo[1,5-a]pyrazin-8-yl)amine] | 501 to 1000 | > 1000
> 1000 | Clc1cc(Nc2ncc(-c3cn[nH]c3)n3ncnc23)ccc1N1CCOCC1 [Compound 18] | 501 to 1000 | > 1000
1 to 100 | O=C1NCc2cc(-c3cnc(Nc4ccc(N5CCNCC5=O)cc4)c4ncnn34)ccc21 [Compound 105, 5-{8-[4-(2-Oxo-piperazin-1-yl)-phenylamino]-[1,2,4]triazolo[1,5-a]pyrazin-5-yl}-2,3-dihydro-isoindol-1-one] | > 1000 | > 1000
1 to 100 | CC(C)N1CCN(c2ccc(Nc3ncc(-c4csc(C(N)=O)c4)n4ncnc34)cc2)CC1 [Compound 28, 4-(8-(4-(4-Isopropylpiperazin-1-yl)phenylamino)-[1,2,4]triazolo[1,5-a]pyrazin-5-yl)thiophene-2-carboxamide] | 501 to 1000 | > 1000
101 to 500 | NC(=O)c1cc(-c2cnc(Nc3ccc(N4CCOCC4)nc3)c3ncnn23)cs1 [Compound 47, 4-[8-(6-[Morpholin-4-yl]pyridin-3-ylamino)-[1,2,4]triazolo[1,5-a]pyrazin-5-yl]thiophene-2-carboxylic acid amide] | 501 to 1000 | > 1000
> 1000 | Fc1cc(N2CCOCC2)ccc1Nc1ncc(-c2cn[nH]c2)n2ncnc12 [Compound 67, N-(2-Fluoro-4-morpholinophenyl)-5-(1H-pyrazol-4-yl)-[1,2,4]triazolo[1,5-a]pyrazin-8-amine] | > 1000 | > 1000
1 to 100 | CC(C)N1CCN(c2ccc(Nc3ncc(-c4ccc5c(c4)CNC5=O)n4ncnc34)cc2)CC1 [Compound 36, 5-(8-(4-(4-Isopropylpiperazin-1-yl)phenylamino)-[1,2,4]triazolo[1,5-a]pyrazin-5-yl)isoindolin-1-one] | 101 to 500 | > 1000
101 to 500 | CC(C)N1CCN(c2ccc(Nc3ncc(-c4ccc5c(c4)CNC5=O)n4ncnc34)cc2C(F)(F)F)CC1 [Compound 170, 5-{8-[4-(4-Isopropylpiperazin-1-yl)-3-trifluoromethylphenylamino]-[1,2,4]triazolo[1,5-a]pyrazin-5-yl}-2,3-dihydroisoindol-1-one] | > 1000 | > 1000
101 to 500 | NC(=O)c1cc(-c2cnc(Nc3ccc(N4CCN(CC5CC5)CC4)nc3)c3ncnn23)cs1 [Compound 54, 4-{8-[6-(4-[Cyclopropylmethyl]piperazin-1-yl)-pyridin-3-ylamino]-[1,2,4]triazolo[1,5-a]pyrazin-5-yl}thiophene-2-carboxylic acid amide] | 101 to 500 | 501 to 1000
> 1000 | Nc1nc(-c2ccc(-c3cnc(Nc4ccc(N5CCOCC5)cc4)c4ncnn34)cc2)cs1 [Compound 85] | > 1000 | > 1000
> 1000 | c1nc2c(Nc3ccc(N4CCOCC4)nc3)ncc(-c3cn[nH]c3)n2n1 [Compound 41, (6-[Morpholin-4-yl]pyridin-3-yl)-[5-(1H-pyrazol-4-yl)-[1,2,4]triazolo[1,5-a]pyrazin-8-yl]amine] | > 1000 | > 1000
> 1000 | NC(=O)c1ccc(-c2cnc(Nc3ccc(N4CCOCC4)cc3)c3ncnn23)c(F)c1 [Compound 10] | 501 to 1000 | > 1000

Source: patent US20100298300A1, “TRIAZOLOPYRAZINE COMPOUNDS USEFUL FOR THE TREATMENT OF DEGENERATIVE & INFLAMMATORY DISEASES” (priority 2006, published 2010)
